In ChEMBL document CHEMBL4177637, “Proapoptotic modification of substituted isoindolinones as MDM2-p53 inhibitors” (2017):
Activity calls are given as the source filed them. No cut-off for these calls is given here.

Key:
[1] = test system: HCT-116; test: Growth inhibition of human HCT116 cells harboring p53+/+ after 48 hrs by Hoechst 33258 staining based fluorescence assay; type: functional; conditions: HCT-116, 48 h
[2] = test system: HCT-116; test: Growth inhibition of human p53 knockdown HCT116 cells after 48 hrs by Hoechst 33258 staining based fluorescence assay; type: functional; conditions: HCT-116, 48 h
[3] = test system: U2OS; test: Induction of apoptosis in human U2OS cells at 10 uM after 24 hrs by Annexin V-FITC/propidium iodide based FACS analysis (Rvb= 0.1%); type: functional
[4] = biological target: Tumour suppressor p53/oncoprotein Mdm2 (Homo sapiens) (UniProt P04637+Q00987); test: Inhibition of MDM2/p53 in human HCT116 cells at 10 uM after 24 hrs by Western blot method; type: cell-based
[5] = test system: HCT-116; test: Selectivity ratio of GI50 for human p53 knockdown HCT116 cells to GI50 for human HCT116 cells harboring p53+/+; type: functional

Tumour suppressor p53/oncoprotein Mdm2 (Homo sapiens), sequence (P04637 whole entry, looked up): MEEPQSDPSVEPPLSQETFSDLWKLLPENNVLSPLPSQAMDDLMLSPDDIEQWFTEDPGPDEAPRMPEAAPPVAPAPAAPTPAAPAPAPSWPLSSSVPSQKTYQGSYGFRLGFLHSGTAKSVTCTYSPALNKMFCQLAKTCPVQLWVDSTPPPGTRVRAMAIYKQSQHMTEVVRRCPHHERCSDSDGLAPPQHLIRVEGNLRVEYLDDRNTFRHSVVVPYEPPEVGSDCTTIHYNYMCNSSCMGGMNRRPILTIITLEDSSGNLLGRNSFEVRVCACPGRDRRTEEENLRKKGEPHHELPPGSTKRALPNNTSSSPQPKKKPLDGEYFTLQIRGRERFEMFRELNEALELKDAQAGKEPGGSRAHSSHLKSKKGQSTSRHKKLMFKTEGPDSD
Tumour suppressor p53/oncoprotein Mdm2 (Homo sapiens), sequence (Q00987 whole entry, looked up): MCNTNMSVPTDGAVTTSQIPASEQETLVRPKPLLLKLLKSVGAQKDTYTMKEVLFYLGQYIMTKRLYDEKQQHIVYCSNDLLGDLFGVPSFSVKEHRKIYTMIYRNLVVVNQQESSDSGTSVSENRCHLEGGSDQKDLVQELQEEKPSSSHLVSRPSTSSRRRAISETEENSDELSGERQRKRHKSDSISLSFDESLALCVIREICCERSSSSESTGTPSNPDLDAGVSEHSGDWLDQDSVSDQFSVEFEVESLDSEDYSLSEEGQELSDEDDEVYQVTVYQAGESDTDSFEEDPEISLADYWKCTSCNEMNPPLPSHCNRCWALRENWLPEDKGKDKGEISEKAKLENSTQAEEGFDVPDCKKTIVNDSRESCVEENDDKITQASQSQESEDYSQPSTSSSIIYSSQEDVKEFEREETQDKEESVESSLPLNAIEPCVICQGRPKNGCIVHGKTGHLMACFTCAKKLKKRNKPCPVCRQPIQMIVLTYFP

Structure (SMILES) | GI50 [1] | GI50 [2] | inhibition [4] | Activity [3] | RatioGI50 [5]
CC(C)[C@H](N)C(=O)OCC(C)(C)COC1(c2ccc(Cl)cc2)c2ccccc2C(=O)N1Cc1ccccc1 (stereo not given in full) | 20 µM | 65 µM | – | – | –
CC(C)(COC(=O)[C@@H](N)c1ccccc1)COC1(c2ccc(Cl)cc2)c2ccccc2C(=O)N1Cc1ccccc1 (stereo not given in full) | 15 µM | 44 µM | – | – | –
CC(=O)OCC(C)(C)COC1(c2ccc(Cl)cc2)c2ccccc2C(=O)N1Cc1ccc(Cl)cc1 (stereo not given) | 35 µM | 70 µM | – | – | –
COc1ccc(C2=N[C@@H](c3ccc(Cl)cc3)[C@@H](c3ccc(Cl)cc3)N2C(=O)N2CCNC(=O)C2)c(OC(C)C)c1 [NUTLIN-3] | 8 µM | 27 µM | – | 31% | –
O=C1c2ccccc2C(OCCCO)(c2ccc(Cl)cc2)N1Cc1ccc(Cl)cc1 (stereo not given) | 60 µM | 68 µM | – | – | –
CC(C)[C@H](N)C(=O)OCC(C)(C)COC1(c2ccc(Cl)cc2)c2ccccc2C(=O)N1Cc1ccc(Cl)cc1 (stereo not given in full) | 11 µM | 40 µM | – | – | –
CC(C)[C@H](N)C(=O)OCCCOC1(c2ccc(Cl)cc2)c2ccccc2C(=O)N1Cc1ccc(Cl)cc1 (stereo not given in full) | 16 µM | 60 µM | – | – | –
CC(C)(CO)COC1(c2ccc(Cl)cc2)c2ccccc2C(=O)N1Cc1ccc(Cl)cc1 (stereo not given) | 50 µM | 65 µM | Active | 2% | –
CC(C)(COC(=O)[C@@H](N)c1ccccc1)COC1(c2ccc(Cl)cc2)c2ccccc2C(=O)N1Cc1ccc(Cl)cc1 (stereo not given in full) | 8 µM | 38 µM | Active | 33.1% | <=4.75

Continued, in another order:

GI50 [1] | GI50 [2] | inhibition [4] | Structure (SMILES) | Activity [3] | RatioGI50 [5]
12 µM | 45 µM | – | N[C@H](C(=O)OCCCOC1(c2ccc(Cl)cc2)c2ccccc2C(=O)N1Cc1ccc(Cl)cc1)c1ccccc1 (stereo not given in full) | – | –
38 µM | 70 µM | – | CC(=O)OCC(C)(C)COC1(c2ccc(Cl)cc2)c2ccccc2C(=O)N1Cc1ccccc1 (stereo not given) | – | –
79 µM | 90 µM | – | O=C1c2ccccc2C(OCCCO)(c2ccc(Cl)cc2)N1Cc1ccccc1 (stereo not given) | – | –
20 µM | 65 µM | – | CC(C)[C@H](N)C(=O)OCCCOC1(c2ccc(Cl)cc2)c2ccccc2C(=O)N1Cc1ccccc1 (stereo not given in full) | – | –
14 µM | 43 µM | – | N[C@H](C(=O)OCCCOC1(c2ccc(Cl)cc2)c2ccccc2C(=O)N1Cc1ccccc1)c1ccccc1 (stereo not given in full) | – | –
46 µM | 68 µM | – | CC(=O)OCCCOC1(c2ccc(Cl)cc2)c2ccccc2C(=O)N1Cc1ccc(Cl)cc1 (stereo not given) | – | –
50 µM | 80 µM | – | CC(=O)OCCCOC1(c2ccc(Cl)cc2)c2ccccc2C(=O)N1Cc1ccccc1 (stereo not given) | – | –
71 µM | 82 µM | – | CC(C)(CO)COC1(c2ccc(Cl)cc2)c2ccccc2C(=O)N1Cc1ccccc1 (stereo not given) | – | –
